Values of other authors in US20090202442A1, “Enerceutical activation of the alternative cellular energy (ACE) pathway in therapy of diseases” (priority 2008, published 2009).

Tested on: herpes simplex virus (HSV), herpes zoster virus (HZV) and human papillomavirus (HPV) infections

For `Cc1cc2nc3ccc(N(C)C)cc3nc2cc1N.Cl` [neutral red], the “healing of active skin lesions” value (neutral red dye triggered UV fluorescence, HSV, HZV, HPV lesions) is listed as “successfully used in expediting the healing” and the “future outbreaks of recurrent herpes” value (patients with prior history of recurrent herpes, treated when no active lesion present) is listed as “successfully used in preventing future outbreaks”.
